# In publication PMC7156458, “Synthetic biology based construction of biological activity-related library of fungal decalin-containing diterpenoid pyrones” (Nature Communications, 2020):
# Target: Aβ42 (Homo sapiens, UniProt P05067)
# Assay: Th-T (thioflavin-T) assay of Aβ42 aggregation
# Assay type: biochemical
# Settings: for Th-T fluorescence, mean of three wells: Aβ42 aggregation time course
# Aβ42, sequence (P05067 672-713): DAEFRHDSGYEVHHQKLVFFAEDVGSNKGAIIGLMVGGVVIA
compound,measurement,setting,value
C=C1CCC2C(C)(CCC=C(C)C)C(O)CCC2(C)C1Cc1c(OC)oc(C)c(C(=O)OC)c1=O (stereo not drawn) [Compound 14],delay of the nucleation phase,,no delay
same,elongation of Aβ42,,partly suppressed the elongation of Aβ42
same,first Th-T assay result,"Aβ42 (10 μM) ± DPPs (20 μM), room temperature",suppressed Aβ42
same,"Th-T fluorescence, mean of three wells",reading M117,1.655
same,"Th-T fluorescence, mean of three wells",reading M118,1.6572
same,"Th-T fluorescence, mean of three wells",reading M119,1.678
same,"Th-T fluorescence, mean of three wells",reading M120,1.679
same,"Th-T fluorescence, mean of three wells",reading M121,1.668
same,"Th-T fluorescence, mean of three wells",reading M122,1.683
same,"Th-T fluorescence, mean of three wells",reading M123,1.681
same,"Th-T fluorescence, mean of three wells",reading M124,1.6777
same,"Th-T fluorescence, mean of three wells",reading M125,1.687
same,"Th-T fluorescence, mean of three wells",reading M126,1.688
same,"Th-T fluorescence, mean of three wells",reading M127,1.689
same,"Th-T fluorescence, mean of three wells",reading M128,1.7014
same,"Th-T fluorescence, mean of three wells",reading M129,1.701
same,"Th-T fluorescence, mean of three wells",reading M130,1.6991
same,"Th-T fluorescence, mean of three wells (Fig. 7a)","column suffix _10, measurement M19",1.991
same,"Th-T fluorescence, mean of three wells (Fig. 7a)","column suffix _10, measurement M20",2.087
same,"Th-T fluorescence, mean of three wells (Fig. 7a)","column suffix _10, measurement M21",2.17
same,"Th-T fluorescence, mean of three wells (Fig. 7a)","column suffix _10, measurement M22",2.206
same,"Th-T fluorescence, mean of three wells (Fig. 7a)","column suffix _10, measurement M23",2.232
same,"Th-T fluorescence, mean of three wells (Fig. 7a)","column suffix _10, measurement M24",2.258
same,"Th-T fluorescence, mean of three wells (Fig. 7a)","column suffix _10, measurement M25",2.291
same,"Th-T fluorescence, mean of three wells (Fig. 7a)","column suffix _10, measurement M26",2.3072
same,"Th-T fluorescence, mean of three wells (Fig. 7a)","column suffix _10, measurement M27",2.333
same,"Th-T fluorescence, mean of three wells (Fig. 7a)","column suffix _10, measurement M28",2.3263
same,"Th-T fluorescence, mean of three wells (Fig. 7a)","column suffix _10, measurement M29",2.338
same,"Th-T fluorescence, mean of three wells (Fig. 7a)","column suffix _10, measurement M30",2.363
same,"Th-T assay signal, mean of three wells (Fig. 7a)","column suffix _10, reading M1",0.2293
same,"Th-T assay signal, mean of three wells (Fig. 7a)","column suffix _10, reading M2",0.2207
same,"Th-T assay signal, mean of three wells (Fig. 7a)","column suffix _10, reading M3",0.2333
same,"Th-T assay signal, mean of three wells (Fig. 7a)","column suffix _10, reading M4",0.2495
same,"Th-T assay signal, mean of three wells (Fig. 7a)","column suffix _10, reading M5",0.2748
same,"Th-T assay signal, mean of three wells (Fig. 7a)","column suffix _10, reading M6",0.3168
same,"Th-T assay signal, mean of three wells (Fig. 7a)","column suffix _10, reading M7",0.3327
same,"Th-T assay signal, mean of three wells (Fig. 7a)","column suffix _10, reading M8",0.3584
same,"Th-T assay signal, mean of three wells (Fig. 7a)","column suffix _10, reading M9",0.3937
same,"Th-T assay signal, mean of three wells (Fig. 7a)","column suffix _10, reading M10",0.4248
same,"Th-T assay signal, mean of three wells (Fig. 7a)","column suffix _10, reading M11",0.4498
same,"Th-T assay signal, mean of three wells (Fig. 7a)","column suffix _10, reading M12",0.5064
same,"Th-T assay signal, mean of three wells (Fig. 7a)","column suffix _10, reading M13",0.6552
same,"Th-T assay signal, mean of three wells (Fig. 7a)","column suffix _10, reading M14",0.8811
same,"Th-T assay signal, mean of three wells (Fig. 7a)","column suffix _10, reading M15",1.163
same,"Th-T assay signal, mean of three wells (Fig. 7a)","column suffix _10, reading M16",1.433
same,"Th-T assay signal, mean of three wells (Fig. 7a)","column suffix _10, reading M17",1.668
same,"Th-T assay signal, mean of three wells (Fig. 7a)","column suffix _10, reading M18",1.846
same,"Fig. 7a Th-T reading, mean of three wells","column suffix _10, reading M85",2.79
same,"Fig. 7a Th-T reading, mean of three wells","column suffix _10, reading M86",2.788
same,"Fig. 7a Th-T reading, mean of three wells","column suffix _10, reading M87",2.811
same,"Fig. 7a Th-T reading, mean of three wells","column suffix _10, reading M88",2.833
same,"Fig. 7a Th-T reading, mean of three wells","column suffix _10, reading M89",2.856
same,"Fig. 7a Th-T reading, mean of three wells","column suffix _10, reading M90",2.853
same,"Fig. 7a Th-T reading, mean of three wells","column suffix _10, reading M91",2.848
same,"Fig. 7a Th-T reading, mean of three wells","column suffix _10, reading M92",2.836
same,"Fig. 7a Th-T reading, mean of three wells","column suffix _10, reading M93",2.868
same,"Fig. 7a Th-T reading, mean of three wells","column suffix _10, reading M94",2.853
same,"Fig. 7a Th-T reading, mean of three wells","column suffix _10, reading M95",2.8555
same,"Fig. 7a Th-T reading, mean of three wells","column suffix _10, reading M96",2.819
same,"Fig. 7a Th-T reading, mean of three wells","column suffix _10, reading M97",2.823
same,"Fig. 7a Th-T reading, mean of three wells","column suffix _10, reading M98",2.843
same,"Fig. 7a Th-T reading, mean of three wells","column suffix _10, reading M99",2.862
same,"Fig. 7a Th-T reading, mean of three wells","column suffix _10, reading M100",2.849
same,"Fig. 7a Th-T reading, mean of three wells","column suffix _10, reading M101",2.83
same,"Fig. 7a Th-T reading, mean of three wells","column suffix _10, reading M102",2.84
same,"Fig. 7a Th-T reading, mean of three wells","column suffix _10, reading M103",2.843
same,"Fig. 7a Th-T reading, mean of three wells","column suffix _10, reading M104",2.878
same,"Fig. 7a Th-T reading, mean of three wells","column suffix _10, reading M105",2.894
same,"Fig. 7a Th-T reading, mean of three wells","column suffix _10, reading M106",2.859
same,"Th-T fluorescence, mean of three wells (Fig. 7a)","column suffix _20, measurement M19",1.051
same,"Th-T fluorescence, mean of three wells (Fig. 7a)","column suffix _20, measurement M20",1.16
same,"Th-T fluorescence, mean of three wells (Fig. 7a)","column suffix _20, measurement M21",1.235
same,"Th-T fluorescence, mean of three wells (Fig. 7a)","column suffix _20, measurement M22",1.279
same,"Th-T fluorescence, mean of three wells (Fig. 7a)","column suffix _20, measurement M23",1.352
same,"Th-T fluorescence, mean of three wells (Fig. 7a)","column suffix _20, measurement M24",1.3992
same,"Th-T fluorescence, mean of three wells (Fig. 7a)","column suffix _20, measurement M25",1.478
same,"Th-T fluorescence, mean of three wells (Fig. 7a)","column suffix _20, measurement M26",1.556
same,"Th-T fluorescence, mean of three wells (Fig. 7a)","column suffix _20, measurement M27",1.595
same,"Th-T fluorescence, mean of three wells (Fig. 7a)","column suffix _20, measurement M28",1.672
same,"Th-T fluorescence, mean of three wells (Fig. 7a)","column suffix _20, measurement M29",1.711
same,"Th-T assay signal, mean of three wells (Fig. 7a)","column suffix _20, reading M1",0.305
same,"Th-T assay signal, mean of three wells (Fig. 7a)","column suffix _20, reading M2",0.2567
same,"Th-T assay signal, mean of three wells (Fig. 7a)","column suffix _20, reading M3",0.2803
same,"Th-T assay signal, mean of three wells (Fig. 7a)","column suffix _20, reading M4",0.2741
same,"Th-T assay signal, mean of three wells (Fig. 7a)","column suffix _20, reading M5",0.2931
same,"Th-T assay signal, mean of three wells (Fig. 7a)","column suffix _20, reading M6",0.3005
same,"Th-T assay signal, mean of three wells (Fig. 7a)","column suffix _20, reading M7",0.3085
same,"Th-T assay signal, mean of three wells (Fig. 7a)","column suffix _20, reading M8",0.3015
same,"Th-T assay signal, mean of three wells (Fig. 7a)","column suffix _20, reading M9",0.3254
same,"Th-T assay signal, mean of three wells (Fig. 7a)","column suffix _20, reading M10",0.3505
same,"Th-T assay signal, mean of three wells (Fig. 7a)","column suffix _20, reading M11",0.3712
same,"Th-T assay signal, mean of three wells (Fig. 7a)","column suffix _20, reading M12",0.4273
same,"Th-T assay signal, mean of three wells (Fig. 7a)","column suffix _20, reading M13",0.4951
same,"Th-T assay signal, mean of three wells (Fig. 7a)","column suffix _20, reading M14",0.5807
same,"Th-T assay signal, mean of three wells (Fig. 7a)","column suffix _20, reading M15",0.6574
same,"Th-T assay signal, mean of three wells (Fig. 7a)","column suffix _20, reading M16",0.7497
same,"Th-T assay signal, mean of three wells (Fig. 7a)","column suffix _20, reading M17",0.8453
same,"Th-T assay signal, mean of three wells (Fig. 7a)","column suffix _20, reading M18",0.9743
same,"Fig. 7a Th-T reading, mean of three wells","column suffix _20, reading M85",1.842
same,"Fig. 7a Th-T reading, mean of three wells","column suffix _20, reading M86",1.882
same,"Fig. 7a Th-T reading, mean of three wells","column suffix _20, reading M87",1.842
same,"Fig. 7a Th-T reading, mean of three wells","column suffix _20, reading M88",1.862
same,"Fig. 7a Th-T reading, mean of three wells","column suffix _20, reading M89",1.848
same,"Fig. 7a Th-T reading, mean of three wells","column suffix _20, reading M90",1.855
same,"Fig. 7a Th-T reading, mean of three wells","column suffix _20, reading M91",1.818
same,"Fig. 7a Th-T reading, mean of three wells","column suffix _20, reading M92",1.795
same,"Fig. 7a Th-T reading, mean of three wells","column suffix _20, reading M93",1.7999
same,"Fig. 7a Th-T reading, mean of three wells","column suffix _20, reading M94",1.805
same,"Fig. 7a Th-T reading, mean of three wells","column suffix _20, reading M95",1.783
same,"Fig. 7a Th-T reading, mean of three wells","column suffix _20, reading M96",1.793
same,"Fig. 7a Th-T reading, mean of three wells","column suffix _20, reading M97",1.78
same,"Fig. 7a Th-T reading, mean of three wells","column suffix _20, reading M98",1.799
same,"Fig. 7a Th-T reading, mean of three wells","column suffix _20, reading M99",1.789
same,"Fig. 7a Th-T reading, mean of three wells","column suffix _20, reading M100",1.781
